Experimental data published in article PMC8016998, “Identification of potential therapeutic antimicrobial peptides against Acinetobacter baumannii in a mouse model of pneumonia” (Scientific Reports, 2021).
No end group written: not given here.

Experiments:
[1] = tested on: MDRAB clinical strain W11; type: cell-based, Acinetobacter baumannii; conditions: 24 h
Description: (§1) MBC were determined by extending the MIC procedure in sterilized 96-well polypropylene microtiter plates according to the broth microdilution guidelines of the Clinical and Laboratory Standards Institute with some modification[47]. […] In addition, 10 µL was drawn from each well with no visible turbidity onto LB agar plates and incubated for 24 h at 37 °C. The lowest concentration showing no visible growth on agar subculture was used as the MBC value. All experiments were performed in triplicate.

[2] = tested on: MDRAB clinical strain AS40; type: cell-based, Acinetobacter baumannii; conditions: 24 h
Description: as §1

[3] = tested on: MDRAB clinical strain O59; type: cell-based, Acinetobacter baumannii; conditions: 24 h
Description: as §1

[4] = tested on: MDRAB clinical strain AF93; type: cell-based, Acinetobacter baumannii; conditions: 24 h
Description: as §1

[5] = tested on: MDRAB clinical strain AF11; type: cell-based, Acinetobacter baumannii; conditions: 24 h
Description: as §1

[6] = tested on: MDRAB clinical strain J49; type: cell-based, Acinetobacter baumannii; conditions: 24 h
Description: as §1

[7] = tested on: MDRAB clinical strain U95; type: cell-based, Acinetobacter baumannii; conditions: 24 h
Description: as §1

[8] = tested on: MDRAB clinical strain AE6; type: cell-based, Acinetobacter baumannii; conditions: 24 h
Description: as §1

[9] = tested on: MDRAB clinical strain AG51; type: cell-based, Acinetobacter baumannii; conditions: 24 h
[10] = tested on: MDRAB clinical strain AO80; type: cell-based, Acinetobacter baumannii; conditions: 24 h
MDRAB clinical strains = type: cell-based, Acinetobacter baumannii; conditions: 24 h
Description: as §1

[11] = tested on: Acinetobacter baumannii 19,606; type: cell-based; conditions: 19,606, 24 h
[12] = tested on: MDRAB clinical strain D29; type: cell-based, Acinetobacter baumannii; conditions: 24 h
[13] = tested on: Acinetobacter baumannii 17,978; type: cell-based; conditions: 17,978, 24 h;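 further: CLSI broth microdilution in 96-well polypropylene plates, MBC taken as lowest concentration giving no growth when clear wells were subcultured on LB agar for 24 h at 37 °C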
Description: as §1

[14] = tested on: MDRAB clinical strain AF12; type: cell-based, Acinetobacter baumannii; conditions: 24 h
Description: as §1

[15] = tested on: MDRAB clinical strain AK29; type: cell-based, Acinetobacter baumannii; conditions: 24 h
Description: as §1

[16] = tested on: MDRAB clinical strain Y92; type: cell-based, Acinetobacter baumannii; conditions: 24 h
MDRAB clinical strain K2 = type: cell-based, Acinetobacter baumannii; conditions: 24 h
[17] = tested on: MDRAB clinical strain AZ93; type: cell-based, Acinetobacter baumannii; conditions: 24 h
Description: as §1

[18] = tested on: MDRAB clinical strain AL87; type: cell-based, Acinetobacter baumannii; conditions: 24 h
Description: as §1

[19] = tested on: MDRAB clinical strain AE5; type: cell-based, Acinetobacter baumannii; conditions: 24 h
Description: as §1

[20] = tested on: MDRAB clinical strain AK61; type: cell-based, Acinetobacter baumannii; conditions: 24 h
[21] = tested on: MDRAB clinical strain L87; type: cell-based, Acinetobacter baumannii; conditions: 24 h
[22] = tested on: MDRAB clinical strain U80; type: cell-based, Acinetobacter baumannii; conditions: 24 h
Description: as §1

[23] = tested on: MDRAB clinical strain AN10; type: cell-based, Acinetobacter baumannii; conditions: 24 h

In the case of GYNYAKKLANLAKKFANALW-NH2 [GW-H1a], the MBC [1] is reported as 16 µg/mL, the MIC [1] is reported as 16 µg/mL and the MBC [2] is reported as 8 µg/mL. It also gave an MIC [2] of 8 µg/mL, an MBC [3] of 32 µg/mL and an MIC [3] of 16 µg/mL. The MBC [4] was 8 µg/mL, the MIC [4] was 8 µg/mL and the MBC [5] was 16 µg/mL. The MIC [5] was 8 µg/mL, the MBC [6] was 8 µg/mL and the MIC [6] was 8 µg/mL. The MBC [7] was 32 µg/mL, the MIC [7] was 16 µg/mL and the MBC [8] was 16 µg/mL. For the same substance, the MIC [8] was 8 µg/mL, the MBC [9] was 8 µg/mL and the MIC [9] was 8 µg/mL. The MBC [10] was 8 µg/mL, the MIC [10] was 8 µg/mL and the MBC (MDRAB clinical strains) was 8 to 32 µg/mL. The MIC (MDRAB clinical strains) was 8 to 16 µg/mL, the MBC [11] was 16 µg/mL and the MIC [11] was 16 µg/mL. It also gave an MBC [12] of 32 µg/mL, an MIC [12] of 16 µg/mL and an MBC [13] of 32 µg/mL. It also gave an MIC [13] of 32 µg/mL, an MBC [14] of 16 µg/mL and an MIC [14] of 8 µg/mL. The MBC [15] was 8 µg/mL, the MIC [15] was 8 µg/mL and the MBC [16] was 8 µg/mL. The MIC [16] was 8 µg/mL, the MBC (MDRAB clinical strain K2) was 16 µg/mL and the MIC (MDRAB clinical strain K2) was 16 µg/mL. For the same substance, the MBC [17] was 8 µg/mL, the MIC [17] was 8 µg/mL and the MBC [18] was 8 µg/mL. The MIC [18] was 8 µg/mL, the MBC [19] was 16 µg/mL and the MIC [19] was 16 µg/mL. For the same substance, the MBC [20] was 8 µg/mL, the MIC [20] was 8 µg/mL and the MBC [21] was 32 µg/mL. It also gave an MIC [21] of 16 µg/mL, an MBC [22] of 32 µg/mL and an MIC [22] of 16 µg/mL. The MBC [23] was 8 µg/mL and the MIC [23] was 8 µg/mL.

For GAKYAKIIYNYLKKIANALW [GW-A2], the MBC [1] was 16 µg/mL, the MIC [1] was 16 µg/mL and the MBC [2] was 16 µg/mL. For the same substance, the MIC [2] was 8 µg/mL, the MBC [3] was 32 µg/mL and the MIC [3] was 32 µg/mL. The MBC [4] was 16 µg/mL, the MIC [4] was 16 µg/mL and the MBC [5] was 32 µg/mL. It also gave an MIC [5] of 16 µg/mL, an MBC [6] of 16 µg/mL and an MIC [6] of 16 µg/mL. The MBC [7] was 64 µg/mL, the MIC [7] was 32 µg/mL and the MBC [8] was 32 µg/mL. The MIC [8] was 16 µg/mL, the MBC [9] was 8 µg/mL and the MIC [9] was 8 µg/mL. For the same substance, the MBC [10] was 16 µg/mL, the MIC [10] was 8 µg/mL and the MBC (MDRAB clinical strains) was 8 to 64 µg/mL. For the same substance, the MIC (MDRAB clinical strains) was 8 to 32 µg/mL, the MBC [11] was 8 µg/mL and the MIC [11] was 8 µg/mL. For the same substance, the MBC [12] was 16 µg/mL, the MIC [12] was 16 µg/mL and the MBC [13] was 32 µg/mL. It also gave an MIC [13] of 32 µg/mL, an MBC [14] of 8 µg/mL and an MIC [14] of 8 µg/mL. The MBC [15] was 8 µg/mL, the MIC [15] was 8 µg/mL and the MBC [16] was 16 µg/mL. The MIC [16] was 16 µg/mL, the MBC (MDRAB clinical strain K2) was 64 µg/mL and the MIC (MDRAB clinical strain K2) was 32 µg/mL. The MBC [17] was 16 µg/mL, the MIC [17] was 8 µg/mL and the MBC [18] was 8 µg/mL. The MIC [18] was 8 µg/mL, the MBC [19] was 16 µg/mL and the MIC [19] was 16 µg/mL. The MBC [20] was 8 µg/mL, the MIC [20] was 8 µg/mL and the MBC [21] was 16 µg/mL. For the same substance, the MIC [21] was 16 µg/mL, the MBC [22] was 16 µg/mL and the MIC [22] was 16 µg/mL. It also gave an MBC [23] of 8 µg/mL and an MIC [23] of 8 µg/mL.

Substance GIKIAKKAITIAKKIAKIYW [GW-Q6] has an MBC [1] of 16 µg/mL, an MIC [1] of 16 µg/mL and an MBC [2] of 16 µg/mL. The MIC [2] was 16 µg/mL, the MBC [3] was 32 µg/mL and the MIC [3] was 16 µg/mL. The MBC [4] was 16 µg/mL, the MIC [4] was 8 µg/mL and the MBC [5] was 8 µg/mL. For the same substance, the MIC [5] was 8 µg/mL, the MBC [6] was 16 µg/mL and the MIC [6] was 16 µg/mL. It also gave an MBC [7] of 32 µg/mL, an MIC [7] of 16 µg/mL and an MBC [8] of 8 µg/mL. It also gave an MIC [8] of 8 µg/mL, an MBC [9] of 8 µg/mL and an MIC [9] of 8 µg/mL. The MBC [10] was 16 µg/mL, the MIC [10] was 16 µg/mL and the MBC (MDRAB clinical strains) was 8 to 32 µg/mL. For the same substance, the MIC (MDRAB clinical strains) was 8 to 16 µg/mL, the MBC [11] was 16 µg/mL and the MIC [11] was 16 µg/mL. It also gave an MBC [12] of 32 µg/mL, an MIC [12] of 16 µg/mL and an MBC [13] of 16 µg/mL. For the same substance, the MIC [13] was 16 µg/mL, the MBC [14] was 8 µg/mL and the MIC [14] was 8 µg/mL. It also gave an MBC [15] of 8 µg/mL, an MIC [15] of 8 µg/mL and an MBC [16] of 8 µg/mL. The MIC [16] was 8 µg/mL, the MBC (MDRAB clinical strain K2) was 8 µg/mL and the MIC (MDRAB clinical strain K2) was 8 µg/mL. The MBC [17] was 8 µg/mL, the MIC [17] was 8 µg/mL and the MBC [18] was 8 µg/mL. It also gave an MIC [18] of 8 µg/mL, an MBC [19] of 8 µg/mL and an MIC [19] of 8 µg/mL. The MBC [20] was 16 µg/mL, the MIC [20] was 16 µg/mL and the MBC [21] was 16 µg/mL. The MIC [21] was 16 µg/mL, the MBC [22] was 16 µg/mL and the MIC [22] was 16 µg/mL. For the same substance, the MBC [23] was 8 µg/mL and the MIC [23] was 8 µg/mL.

“GWGSFFKKAAHVGKHVGKAALTHYL-NH2 [Pleurocidin]” gave an MBC [1] of 16 µg/mL, an MIC [1] of 16 µg/mL and an MBC [2] of 8 µg/mL. It also gave an MIC [2] of 8 µg/mL, an MBC [3] of 16 µg/mL and an MIC [3] of 16 µg/mL. The MBC [4] was 16 µg/mL, the MIC [4] was 8 µg/mL and the MBC [5] was 16 µg/mL. For the same substance, the MIC [5] was 8 µg/mL, the MBC [6] was 16 µg/mL and the MIC [6] was 16 µg/mL. It also gave an MBC [7] of 32 µg/mL, an MIC [7] of 32 µg/mL and an MBC [8] of 16 µg/mL. For the same substance, the MIC [8] was 16 µg/mL, the MBC [9] was 8 µg/mL and the MIC [9] was 8 µg/mL. It also gave an MBC [10] of 8 µg/mL, an MIC [10] of 8 µg/mL and an MBC (MDRAB clinical strains) of 8 to 32 µg/mL. It also gave an MIC (MDRAB clinical strains) of 8 to 32 µg/mL, an MBC [11] of 16 µg/mL and an MIC [11] of 16 µg/mL. The MBC [12] was 32 µg/mL, the MIC [12] was 16 µg/mL and the MBC [13] was 16 µg/mL. It also gave an MIC [13] of 16 µg/mL, an MBC [14] of 8 µg/mL and an MIC [14] of 8 µg/mL. For the same substance, the MBC [15] was 16 µg/mL, the MIC [15] was 8 µg/mL and the MBC [16] was 8 µg/mL. The MIC [16] was 8 µg/mL, the MBC (MDRAB clinical strain K2) was 32 µg/mL and the MIC (MDRAB clinical strain K2) was 16 µg/mL. The MBC [17] was 8 µg/mL, the MIC [17] was 8 µg/mL and the MBC [18] was 8 µg/mL. For the same substance, the MIC [18] was 8 µg/mL, the MBC [19] was 16 µg/mL and the MIC [19] was 16 µg/mL. It also gave an MBC [20] of 16 µg/mL, an MIC [20] of 16 µg/mL and an MBC [21] of 32 µg/mL. It also gave an MIC [21] of 32 µg/mL, an MBC [22] of 16 µg/mL and an MIC [22] of 16 µg/mL. The MBC [23] was 16 µg/mL and the MIC [23] was 16 µg/mL.
